In the experiment the test system is CD8-positive HLA-A2402-restrictive CTL clones specific for the ErbB2 p63-71 peptide. Nature of the experiment: Stimulating activity of treated dendritic cells on proliferation of CTL clone. Format: cell-based, human. Conditions: HLA-A2402 dendritic cells treated at protein concentration of 100 µg/ml for 3 hours or peptide-pulsed; compared to the non-treated dendritic cells; Fig. 3. On the procedure:
The dendritic cells, prepared from healthy human peripheral blood monocytes having HLA-A2402 as described above, were cultured with the CHP-ErbB2 suspension, the ErbB2 protein alone, the CHP-CAB suspension, or the CAB protein alone each at a protein concentration of 100 µ g/ml for 3 hours. The cells were washed and then further cultured for 15 hours.
By using these dendritic cells and the ErbB2 p63-71 peptide-pulsed dendritic cells derived from the same individual as stimulating cells, their abilities of stimulation were examined on the aforementioned CD8-positive HLA-A2402-restrictive CTL clones specific for the ErbB2 p63-71 peptide.

Turning to “p63-71 peptide: peptide having the 63-71 amino acid sequence of HER2, positive control (TYLPTNASL)”, the “stimulation and proliferation of the CTL clone” value is “significantly stimulate the CTL clone and induce proliferation”.
